Laboratory results reported in article PMC6120666 (The EMBO Journal, 2018).

How the values were obtained:
Test in all cases: Drug affinity chromatography with c-ponatinib and LC-MS/MS (ponatinib interactome)
Format in all cases: binding
[1] = target: T1, proteins of U2OS cell lysate (Homo sapiens, UniProt P62241); details: RPS8, 40S ribosomal protein S8
T1 construct: Proteins enriched by c-ponatinib from U2OS cell lysate; endogenous in cells; host or cells: U2OS cell lysate
Outline: (§1)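 U2OS cell lysate in NP-40 lysis buffer (2 mg protein per pulldown) was incubated with amine-derivatized NHS beads for 2 h at 4 °C. Bound proteins were washed, eluted with 100 mM formic acid, reduced, alkylated and trypsin-digested, then identified by nano-UPLC–MS/MS on Orbitrap instruments with a 60 min gradient.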

[2] = target: T2, proteins of U2OS cell lysate (Homo sapiens, UniProt Q01650); details: SLC7A5, Large neutral amino acids transporter small subunit 1
T2 construct: Proteins enriched by c-ponatinib from U2OS cell lysate; endogenous in cells; host or cells: U2OS cell lysate
T2 sequence (Q01650 whole entry): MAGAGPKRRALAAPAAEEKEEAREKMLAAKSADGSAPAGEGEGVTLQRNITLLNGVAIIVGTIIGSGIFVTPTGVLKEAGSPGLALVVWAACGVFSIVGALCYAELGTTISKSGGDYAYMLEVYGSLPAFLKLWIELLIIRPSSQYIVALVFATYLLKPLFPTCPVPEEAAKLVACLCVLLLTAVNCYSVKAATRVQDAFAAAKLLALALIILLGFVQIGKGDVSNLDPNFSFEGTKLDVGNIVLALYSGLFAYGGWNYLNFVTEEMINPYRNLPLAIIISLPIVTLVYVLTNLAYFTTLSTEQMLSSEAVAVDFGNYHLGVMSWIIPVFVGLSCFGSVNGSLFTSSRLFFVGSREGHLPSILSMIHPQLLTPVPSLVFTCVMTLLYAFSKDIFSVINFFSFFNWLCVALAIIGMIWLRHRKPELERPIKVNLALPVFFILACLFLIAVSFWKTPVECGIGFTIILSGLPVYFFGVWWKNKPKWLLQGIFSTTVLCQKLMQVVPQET
Outline: as §1

[3] = target: T3, proteins of U2OS cell lysate (Homo sapiens, UniProt P60953); details: CDC42, Cell division control protein 42 homolog
T3 construct: Proteins enriched by c-ponatinib from U2OS cell lysate; endogenous in cells; host or cells: U2OS cell lysate
T3 sequence (P60953 whole entry): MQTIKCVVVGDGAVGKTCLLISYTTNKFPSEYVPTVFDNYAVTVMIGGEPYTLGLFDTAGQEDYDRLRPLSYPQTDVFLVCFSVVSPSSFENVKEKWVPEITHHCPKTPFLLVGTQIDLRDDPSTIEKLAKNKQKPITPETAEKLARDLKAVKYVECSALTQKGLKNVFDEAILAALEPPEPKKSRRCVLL
Outline: as §1

[4] = target: T4, proteins of U2OS cell lysate (Homo sapiens, UniProt P55060); details: CSE1L, Exportin-2
T4 construct: Proteins enriched by c-ponatinib from U2OS cell lysate; endogenous in cells; host or cells: U2OS cell lysate
T4 sequence (P55060 whole entry): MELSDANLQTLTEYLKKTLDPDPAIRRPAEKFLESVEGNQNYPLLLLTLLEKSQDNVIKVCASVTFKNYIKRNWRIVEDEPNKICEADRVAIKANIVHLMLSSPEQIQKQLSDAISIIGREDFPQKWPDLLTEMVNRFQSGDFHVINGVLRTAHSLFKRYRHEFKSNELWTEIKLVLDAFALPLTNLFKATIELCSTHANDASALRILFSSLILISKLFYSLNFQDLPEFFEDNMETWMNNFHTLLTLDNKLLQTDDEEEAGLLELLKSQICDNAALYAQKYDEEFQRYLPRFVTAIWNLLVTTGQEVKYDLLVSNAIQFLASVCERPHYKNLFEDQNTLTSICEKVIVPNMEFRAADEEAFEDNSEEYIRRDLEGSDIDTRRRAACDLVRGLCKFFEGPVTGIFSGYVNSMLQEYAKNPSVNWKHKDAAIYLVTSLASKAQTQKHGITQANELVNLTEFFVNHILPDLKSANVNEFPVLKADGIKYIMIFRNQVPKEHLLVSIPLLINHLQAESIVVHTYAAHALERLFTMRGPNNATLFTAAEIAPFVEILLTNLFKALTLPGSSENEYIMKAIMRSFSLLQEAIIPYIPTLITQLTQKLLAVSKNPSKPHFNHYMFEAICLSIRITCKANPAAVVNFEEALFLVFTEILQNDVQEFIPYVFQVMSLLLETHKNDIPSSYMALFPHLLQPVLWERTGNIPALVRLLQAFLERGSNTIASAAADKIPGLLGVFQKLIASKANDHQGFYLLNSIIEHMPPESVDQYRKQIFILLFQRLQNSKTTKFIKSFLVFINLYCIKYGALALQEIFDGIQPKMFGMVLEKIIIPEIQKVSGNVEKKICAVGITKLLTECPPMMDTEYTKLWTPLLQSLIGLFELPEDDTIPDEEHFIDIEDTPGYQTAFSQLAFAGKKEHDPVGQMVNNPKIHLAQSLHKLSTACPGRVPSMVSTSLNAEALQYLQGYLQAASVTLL
Outline: as §1

[5] = target: T5, proteins of U2OS cell lysate (Homo sapiens, UniProt P39019); details: RPS19, 40S ribosomal protein S19
T5 construct: Proteins enriched by c-ponatinib from U2OS cell lysate; endogenous in cells; host or cells: U2OS cell lysate
Outline: as §1

[6] = target: T6, proteins of U2OS cell lysate (Homo sapiens, UniProt Q14498); details: RBM39, RNA-binding protein 39
T6 construct: Proteins enriched by c-ponatinib from U2OS cell lysate; endogenous in cells; host or cells: U2OS cell lysate
T6 sequence (Q14498 whole entry): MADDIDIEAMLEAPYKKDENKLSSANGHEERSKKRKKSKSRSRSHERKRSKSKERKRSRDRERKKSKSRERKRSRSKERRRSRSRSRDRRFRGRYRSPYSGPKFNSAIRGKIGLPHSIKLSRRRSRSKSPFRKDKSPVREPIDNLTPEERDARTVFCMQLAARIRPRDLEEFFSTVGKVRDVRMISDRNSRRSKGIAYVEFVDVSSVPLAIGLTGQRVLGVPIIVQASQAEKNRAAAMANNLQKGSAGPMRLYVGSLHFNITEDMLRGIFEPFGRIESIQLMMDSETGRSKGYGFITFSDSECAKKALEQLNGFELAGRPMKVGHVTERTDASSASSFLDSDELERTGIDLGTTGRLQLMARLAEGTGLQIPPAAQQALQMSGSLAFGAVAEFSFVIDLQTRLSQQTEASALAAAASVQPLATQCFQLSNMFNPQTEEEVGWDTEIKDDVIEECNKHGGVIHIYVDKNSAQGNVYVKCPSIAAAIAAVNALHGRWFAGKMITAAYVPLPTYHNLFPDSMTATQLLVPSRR
Outline: as §1

[7] = target: T7, proteins of U2OS cell lysate (Homo sapiens, UniProt P36542); details: ATP5C1, ATP synthase subunit gamma, mitochondrial
T7 construct: Proteins enriched by c-ponatinib from U2OS cell lysate; endogenous in cells; host or cells: U2OS cell lysate
Outline: as §1

[8] = target: T8, proteins of U2OS cell lysate (Homo sapiens, UniProt O60664); details: PLIN3, Perilipin-3
T8 construct: Proteins enriched by c-ponatinib from U2OS cell lysate; endogenous in cells; host or cells: U2OS cell lysate
T8 sequence (O60664 whole entry): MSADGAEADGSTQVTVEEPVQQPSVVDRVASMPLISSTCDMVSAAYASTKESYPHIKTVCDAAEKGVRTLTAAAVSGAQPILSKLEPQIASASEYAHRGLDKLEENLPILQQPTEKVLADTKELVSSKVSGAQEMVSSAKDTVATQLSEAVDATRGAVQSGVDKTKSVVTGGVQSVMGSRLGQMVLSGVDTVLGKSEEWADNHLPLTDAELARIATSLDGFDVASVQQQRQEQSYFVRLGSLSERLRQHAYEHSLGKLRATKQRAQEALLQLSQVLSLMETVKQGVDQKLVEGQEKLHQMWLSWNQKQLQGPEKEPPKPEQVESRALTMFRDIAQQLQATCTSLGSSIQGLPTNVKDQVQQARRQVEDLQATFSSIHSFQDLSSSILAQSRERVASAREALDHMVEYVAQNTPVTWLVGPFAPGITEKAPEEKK
Outline: as §1

[9] = target: T9, proteins of U2OS cell lysate (Homo sapiens, UniProt Q9Y6G9); details: DYNC1LI1, Cytoplasmic dynein 1 light intermediate chain 1
T9 construct: Proteins enriched by c-ponatinib from U2OS cell lysate; endogenous in cells; host or cells: U2OS cell lysate
T9 sequence (Q9Y6G9 whole entry): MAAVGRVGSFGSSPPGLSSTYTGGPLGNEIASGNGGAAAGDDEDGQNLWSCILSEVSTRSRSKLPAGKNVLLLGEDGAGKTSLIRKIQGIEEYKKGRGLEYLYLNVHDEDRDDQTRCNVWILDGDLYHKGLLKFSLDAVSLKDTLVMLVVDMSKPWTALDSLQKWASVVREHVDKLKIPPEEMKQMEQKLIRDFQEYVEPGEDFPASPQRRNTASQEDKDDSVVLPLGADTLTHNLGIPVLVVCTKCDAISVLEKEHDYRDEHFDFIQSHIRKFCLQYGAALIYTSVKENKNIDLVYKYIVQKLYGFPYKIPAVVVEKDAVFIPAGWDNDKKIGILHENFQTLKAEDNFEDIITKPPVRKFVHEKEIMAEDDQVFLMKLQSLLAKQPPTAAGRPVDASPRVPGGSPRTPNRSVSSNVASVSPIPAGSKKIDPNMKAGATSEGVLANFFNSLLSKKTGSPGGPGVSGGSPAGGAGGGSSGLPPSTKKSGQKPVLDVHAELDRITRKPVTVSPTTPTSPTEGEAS
Outline: as §1

[10] = target: T10, proteins of U2OS cell lysate (Homo sapiens, UniProt Q02218); details: OGDH;OGDHL, 2-oxoglutarate dehydrogenase, mitochondrial
T10 construct: Proteins enriched by c-ponatinib from U2OS cell lysate; endogenous in cells; host or cells: U2OS cell lysate
Outline: as §1

[11] = target: T11, proteins of U2OS cell lysate (Homo sapiens, UniProt O76071); details: CIAO1, Probable cytosolic iron-sulfur protein assembly protein CIAO1
T11 construct: Proteins enriched by c-ponatinib from U2OS cell lysate; endogenous in cells; host or cells: U2OS cell lysate
Outline: as §1

[12] = target: T12, proteins of U2OS cell lysate (Homo sapiens, UniProt P68371); details: TUBB4B;TUBB8, Tubulin beta-4B chain
T12 construct: Proteins enriched by c-ponatinib from U2OS cell lysate; endogenous in cells; host or cells: U2OS cell lysate
Outline: as §1

[13] = target: T13, proteins of U2OS cell lysate (Homo sapiens, UniProt P57678); details: GEMIN4, Gem-associated protein 4
T13 construct: Proteins enriched by c-ponatinib from U2OS cell lysate; endogenous in cells; host or cells: U2OS cell lysate
Outline: as §1

[14] = target: T14, proteins of U2OS cell lysate (Homo sapiens, UniProt P61026); details: RAB10, Ras-related protein Rab-10
T14 construct: Proteins enriched by c-ponatinib from U2OS cell lysate; endogenous in cells; host or cells: U2OS cell lysate
Outline: as §1

[15] = target: T15, proteins of U2OS cell lysate (Homo sapiens, UniProt Q99623); details: PHB2, Prohibitin-2
T15 construct: Proteins enriched by c-ponatinib from U2OS cell lysate; endogenous in cells; host or cells: U2OS cell lysate
T15 sequence (Q99623 whole entry): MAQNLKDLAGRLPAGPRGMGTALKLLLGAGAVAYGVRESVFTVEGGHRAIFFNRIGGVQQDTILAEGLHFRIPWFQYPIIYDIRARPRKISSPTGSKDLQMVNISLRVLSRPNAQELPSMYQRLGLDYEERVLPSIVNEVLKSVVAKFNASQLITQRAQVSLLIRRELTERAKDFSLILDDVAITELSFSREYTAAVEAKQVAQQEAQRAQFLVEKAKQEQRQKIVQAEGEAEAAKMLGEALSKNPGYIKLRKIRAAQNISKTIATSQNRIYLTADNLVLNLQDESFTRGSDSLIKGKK
Outline: as §1

[16] = target: T16, proteins of U2OS cell lysate (Homo sapiens, UniProt P35659); details: DEK, Protein DEK
T16 construct: Proteins enriched by c-ponatinib from U2OS cell lysate; endogenous in cells; host or cells: U2OS cell lysate
T16 sequence (P35659 whole entry): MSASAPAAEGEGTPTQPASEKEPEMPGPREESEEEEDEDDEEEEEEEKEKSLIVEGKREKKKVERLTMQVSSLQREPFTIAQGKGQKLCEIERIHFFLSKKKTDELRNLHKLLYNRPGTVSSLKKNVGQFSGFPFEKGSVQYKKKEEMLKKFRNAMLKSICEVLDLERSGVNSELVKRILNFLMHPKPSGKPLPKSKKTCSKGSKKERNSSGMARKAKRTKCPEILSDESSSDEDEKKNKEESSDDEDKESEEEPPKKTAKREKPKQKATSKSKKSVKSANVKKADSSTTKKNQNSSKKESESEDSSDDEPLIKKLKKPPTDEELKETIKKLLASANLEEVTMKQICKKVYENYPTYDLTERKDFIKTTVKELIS
Outline: as §1

[17] = target: T17, proteins of U2OS cell lysate (Homo sapiens, UniProt Q8TEX9); details: IPO4, Importin-4
T17 construct: Proteins enriched by c-ponatinib from U2OS cell lysate; endogenous in cells; host or cells: U2OS cell lysate
T17 sequence (Q8TEX9 whole entry): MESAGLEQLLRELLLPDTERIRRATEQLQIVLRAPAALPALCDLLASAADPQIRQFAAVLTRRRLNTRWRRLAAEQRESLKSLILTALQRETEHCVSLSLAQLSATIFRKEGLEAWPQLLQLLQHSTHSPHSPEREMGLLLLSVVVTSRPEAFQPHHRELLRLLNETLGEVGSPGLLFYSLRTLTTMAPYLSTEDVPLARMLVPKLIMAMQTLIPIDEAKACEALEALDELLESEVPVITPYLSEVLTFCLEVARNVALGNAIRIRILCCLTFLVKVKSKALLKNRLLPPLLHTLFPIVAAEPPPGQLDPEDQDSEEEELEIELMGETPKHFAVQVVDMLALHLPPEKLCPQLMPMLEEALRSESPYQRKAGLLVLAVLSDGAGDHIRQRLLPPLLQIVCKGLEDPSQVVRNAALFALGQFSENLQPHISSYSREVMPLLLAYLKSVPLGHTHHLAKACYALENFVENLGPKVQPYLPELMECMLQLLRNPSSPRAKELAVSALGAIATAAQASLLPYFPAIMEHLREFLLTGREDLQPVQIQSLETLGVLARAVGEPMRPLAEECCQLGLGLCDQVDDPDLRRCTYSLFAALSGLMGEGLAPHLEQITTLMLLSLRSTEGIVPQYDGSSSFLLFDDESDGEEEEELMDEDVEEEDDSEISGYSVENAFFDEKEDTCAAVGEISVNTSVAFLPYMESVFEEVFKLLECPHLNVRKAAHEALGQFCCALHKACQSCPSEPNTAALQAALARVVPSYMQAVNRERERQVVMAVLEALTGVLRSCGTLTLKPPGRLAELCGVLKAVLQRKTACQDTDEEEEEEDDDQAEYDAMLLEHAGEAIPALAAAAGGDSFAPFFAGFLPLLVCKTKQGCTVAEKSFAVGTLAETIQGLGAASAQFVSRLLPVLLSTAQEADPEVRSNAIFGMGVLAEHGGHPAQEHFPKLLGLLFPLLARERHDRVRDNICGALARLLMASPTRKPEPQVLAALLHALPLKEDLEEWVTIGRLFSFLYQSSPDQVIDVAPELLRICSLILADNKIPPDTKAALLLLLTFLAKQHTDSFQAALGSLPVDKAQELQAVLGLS
Outline: as §1

[18] = target: T18, proteins of U2OS cell lysate (Homo sapiens, UniProt P62266); details: captured protein RPS23, Rank 181
T18 construct: Proteins enriched by c-ponatinib from U2OS cell lysate; endogenous in cells; host or cells: U2OS cell lysate
Outline: as §1

[19] = target: T19, proteins of U2OS cell lysate (Homo sapiens, UniProt P62826); details: captured protein RAN, Rank 147
T19 construct: Proteins enriched by c-ponatinib from U2OS cell lysate; endogenous in cells; host or cells: U2OS cell lysate
Outline: as §1

SMILES | Average LFQ PON_WT [1] | Average LFQ PON_WT [2] | Average LFQ PON_WT [3] | Average LFQ PON_WT [4] | Average LFQ PON_WT [5] | Average LFQ PON_WT [6] | Average LFQ PON_WT [7] | Average LFQ PON_WT [8] | Average LFQ PON_WT [9] | Average LFQ PON_WT [10] | Average LFQ PON_WT [11] | Average LFQ PON_WT [12] | Average LFQ PON_WT [13] | Average LFQ PON_WT [14] | Average LFQ PON_WT [15] | Average LFQ PON_WT [16] | Average LFQ PON_WT [17] | Average LFQ intensity [18] | Average LFQ intensity [19]
Cc1ccc(C(=O)Nc2ccc(CN3CCN(C)CC3)c(C(F)(F)F)c2)cc1C#Cc1cnc2cccnn12 [PON] | 19.8524 | 21.4059 | 20.531 | 25.3839 | 21.4728 | 20.4989 | 21.058 | 20.1604 | 23.2986 | 22.0277 | 21.1391 | 26.1041 | 20.1071 | 19.7729 | 28.7804 | 19.6049 | 20.7176 |  | 
Cc1ccc(C(=O)Nc2ccc(CN3CCN(CCCN)CC3)c(C(F)(F)F)c2)cc1C#Cc1cnc2cccnn12 [c-ponatinib, reference compound] |  |  |  |  |  |  |  |  |  |  |  |  |  |  |  |  |  | 22.1736 | 22.7198
